Experimental data reported in paper PMC7587962, “Evaluation of Cytotoxicity and α-Glucosidase Inhibitory Activity of Amide and Polyamino-Derivatives of Lupane Triterpenoids” (Molecules, 2020).
Read-outs that look alike come from different tables or passages of the source.

Legend:
T-47D = experiment: NCI-60 SRB screen: breast cancer T-47D; format: cell-based, human; conditions: T-47D
UACC-62 = experiment: NCI-60 SRB screen: melanoma UACC-62; format: cell-based, human; conditions: UACC-62
Ovarian Cancer subpanel = experiment: NCI-60 screen, subpanel Ovarian Cancer
TK-10 = experiment: NCI-60 SRB screen: renal cancer TK-10; format: cell-based, human; conditions: TK-10
HOP-62 = experiment: NCI-60 SRB screen: non-small cell lung cancer HOP-62; format: cell-based, human; conditions: HOP-62
OVCAR-3 = experiment: NCI-60 SRB screen: ovarian cancer OVCAR-3; format: cell-based, human; conditions: OVCAR-3
COLO 205 = experiment: NCI-60 SRB screen: colon cancer COLO 205; format: cell-based, human; conditions: COLO 205
CNS cancer subpanel = experiment: NCI-60 screen, subpanel CNS cancer
MCF7 = experiment: NCI-60 SRB screen: breast cancer MCF7; format: cell-based; conditions: Homo sapiens, 48 h, MCF7
SK-OV-3 = experiment: NCI-60 SRB screen: ovarian cancer SK-OV-3; format: cell-based, human; conditions: SK-OV-3
MALME-3M = experiment: NCI-60 SRB screen: melanoma MALME-3M; format: cell-based, human; conditions: MALME-3M
CAKI-1 = experiment: NCI-60 SRB screen: renal cancer CAKI-1; format: cell-based, human; conditions: CAKI-1
OVCAR-8 = experiment: NCI-60 SRB screen: ovarian cancer OVCAR-8; format: cell-based, human; conditions: OVCAR-8
MDA-MB-231/ATCC = experiment: NCI-60 SRB screen: breast cancer MDA-MB-231/ATCC; format: cell-based; conditions: Homo sapiens, 48 h
SK-MEL-2 = experiment: NCI-60 SRB screen: melanoma SK-MEL-2; format: cell-based, human; conditions: SK-MEL-2
786-0 = experiment: NCI-60 SRB screen: renal cancer 786-0; format: cell-based, human; conditions: 786-0
U251 = experiment: NCI-60 SRB screen: CNS cancer U251; format: cell-based; conditions: Homo sapiens, U251
Colon Cancer subpanel = experiment: NCI-60 screen, subpanel Colon Cancer
NCI-H226 = experiment: NCI-60 SRB screen: non-small cell lung cancer NCI-H226; format: cell-based, human; conditions: NCI-H226
SW-620 = experiment: NCI-60 SRB screen: colon cancer SW-620; format: cell-based; conditions: Homo sapiens, 48 h, SW-620
[1] = test system: 60 human tumor cell lines; experiment: cells
SK-MEL-28 = experiment: NCI-60 SRB screen: melanoma SK-MEL-28; format: cell-based, human; conditions: SK-MEL-28
SK-MEL-5 = experiment: NCI-60 SRB screen: melanoma SK-MEL-5; format: cell-based, human; conditions: SK-MEL-5
BT-549 = experiment: NCI-60 SRB screen: breast cancer BT-549; format: cell-based, human; conditions: BT-549
SR = experiment: NCI-60 SRB screen: leukemia SR; format: cell-based; conditions: Homo sapiens, 48 h
Breast cancer subpanel = experiment: NCI-60 screen, subpanel Breast cancer
HS 578T = experiment: NCI-60 SRB screen: breast cancer HS 578T; format: cell-based, human; conditions: HS 578T
HCT-116 = experiment: NCI-60 SRB screen: colon cancer HCT-116; format: cell-based; conditions: Homo sapiens, 48 h, HCT-116
NCI/ADR-RES = experiment: NCI-60 SRB screen: ovarian cancer NCI/ADR-RES; format: cell-based, human
Prostate cancer subpanel = experiment: NCI-60 screen, subpanel Prostate cancer
SNB-75 = experiment: NCI-60 SRB screen: CNS cancer SNB-75; format: cell-based, human; conditions: SNB-75
HCT-15 = experiment: NCI-60 SRB screen: colon cancer HCT-15; format: cell-based, human; conditions: HCT-15
SF-268 = experiment: NCI-60 SRB screen: CNS cancer SF-268; format: cell-based, human; conditions: SF-268
LOX IMVI = experiment: NCI-60 SRB screen: melanoma LOX IMVI; format: cell-based, human
[2] = Homo sapiens, five concentrations, 48 h, SRB, read-out: GI50
[3] = single dose 10 µM, read-out: Percentage Cell Growth
[4] = five concentrations, SRB, read-out: GI50

SMILES: CC(=O)OCC12CCC(C(C)C(N)=O)C1C1CCC3C4(C)CCC(OC(C)=O)C(C)(C)C4CCC3(C)C1(C)CC2 [Compound 4, 3β,28-Diacetyloxy-(20R)-29-amino-29-oxolupane]
- GI50 (T-47D; Homo sapiens, T47D, five concentrations, 48 h, SRB, read-out: GI50): 2.91 µM
- Percentage Cell Growth (T-47D; single dose 10 µM): −8.82%
- GI50 (UACC-62; [2]): 5.46 µM
- Percentage Cell Growth (UACC-62; single dose 10 µM): −82.97%
- MID b, average sensitivity of all cell line of particular subpanel (Ovarian Cancer subpanel): 15.97 µM
- Selectivity, ratio MID a: MID b (Ovarian Cancer subpanel): 0.49
- GI50 (TK-10; [2]): 14.7 µM
- Percentage Cell Growth (TK-10; single dose 10 µM): −35.40%
- Percentage Cell Growth (HOP-62; single dose 10 µM): −72.98%
- GI50 (HOP-62; [2]): 1.1 µM
- GI50 (OVCAR-3; [2]): 3.95 µM
- Percentage Cell Growth (OVCAR-3; single dose 10 µM): −76.19%
- Percentage Cell Growth (COLO 205; single dose 10 µM): −52.98%
- GI50 (COLO 205; [2]): 4.31 µM
- MID b, average sensitivity of all cell line of particular subpanel (CNS cancer subpanel): 7.27 µM
- Selectivity, ratio MID a: MID b (CNS cancer subpanel): 1.08
- activity at 10 µM (MCF7; [3]): -45.6%
- GI50 (MCF7; [4]): 3.27 µM
- GI50 (SK-OV-3; [2]): 13.4 µM
- Percentage Cell Growth (SK-OV-3; single dose 10 µM): −11.89%
- GI50 (MALME-3M; [2]): 10.5 µM
- Percentage Cell Growth (MALME-3M; single dose 10 µM): −88.97%
- Percentage Cell Growth (CAKI-1; single dose 10 µM): −45.80%
- GI50 (CAKI-1; [2]): 3.24 µM
- GI50 (OVCAR-8; [2]): 54.4 µM
- Percentage Cell Growth (OVCAR-8; single dose 10 µM): −31.70%
- activity at 10 µM (MDA-MB-231/ATCC; MDA-MB-231/ATCC, single dose 10 µM, read-out: Percentage Cell Growth): -88.6%
- GI50 (MDA-MB-231/ATCC; MDA-MB-231, MDA-MB-31/ATCC, five concentrations, SRB, read-out: GI50): 11.8 µM
- GI50 (SK-MEL-2; [2]): 10.8 µM
- Percentage Cell Growth (SK-MEL-2; single dose 10 µM): −77.63%
- Percentage Cell Growth (786-0; single dose 10 µM): −73.99%
- GI50 (786-0; [2]): 10.9 µM
- activity at 10 µM (U251; U-251, 48 h, single dose 10 µM, read-out: Percentage Cell Growth): -51.4%
- GI50 (U251; U-251, five concentrations, 48 h, SRB, read-out: GI50): 5.1 µM
- MID b, average sensitivity of all cell line of particular subpanel (Colon Cancer subpanel): 5.37 µM
- Selectivity, ratio MID a: MID b (Colon Cancer subpanel): 1.47
- GI50 (NCI-H226; [2]): 7.28 µM
- Percentage Cell Growth (NCI-H226; single dose 10 µM): −58.51%
- activity at 10 µM (SW-620; [3]): -55.1%
- GI50 (SW-620; [4]): 7.7 µM
- GI50 ([1]; read-out: GI50 ranges against all panels of NCI60): 1.1 to 54.4 µM
- GI50 ([1]; read-out: MID a, average sensitivity of all cell line (GI50-MID)): 7.87 µM
- GI50 (SK-MEL-28; [2]): 12 µM
- Percentage Cell Growth (SK-MEL-28; single dose 10 µM): −73.19%
- GI50 (SK-MEL-5; [2]): 3.8 µM
- Percentage Cell Growth (SK-MEL-5; single dose 10 µM): −71.94%
- Percentage Cell Growth (BT-549; single dose 10 µM): −55.13%
- GI50 (BT-549; [2]): 8.17 µM
- activity at 10 µM (SR; [3]): 10.8%
- GI50 (SR; [4]): 3.32 µM
- MID b, average sensitivity of all cell line of particular subpanel (Breast cancer subpanel): 7.09 µM
- Selectivity, ratio MID a: MID b (Breast cancer subpanel): 1.11
- Percentage Cell Growth (HS 578T; single dose 10 µM): −32.99%
- GI50 (HS 578T; [2]): 12.4 µM
- activity at 10 µM (HCT-116; [3]): -84.2%
- GI50 (HCT-116; [4]): 3.57 µM
- GI50 (NCI/ADR-RES; [2]): 7.74 µM
- Percentage Cell Growth (NCI/ADR-RES; single dose 10 µM): −57.29%
- MID b, average sensitivity of all cell line of particular subpanel (Prostate cancer subpanel): 6.31 µM
- Selectivity, ratio MID a: MID b (Prostate cancer subpanel): 1.25
- GI50 (SNB-75; [2]): 5.59 µM
- Percentage Cell Growth (SNB-75; single dose 10 µM): −47.83%
- Percentage Cell Growth (HCT-15; single dose 10 µM): −44.10%
- GI50 (HCT-15; [2]): 4.04 µM
- GI50 (SF-268; [2]): 6.95 µM
- Percentage Cell Growth (SF-268; single dose 10 µM): −61.04%
- GI50 (LOX IMVI; [2]): 10.2 µM
- Percentage Cell Growth (LOX IMVI; single dose 10 µM): −85.52%
